Data taken from paper PMC5218480 (PLoS ONE, 2017).

System: MV-4-11 cells
Experiment: Gene expression microarray analysis (Affymetrix PrimeView) and GSEA
Type: cell-based, human
Parameters: RFU PODN (11730768_x_at) / Fold change /veh PODN (11730768_x_at) / RFU LINC00158 (11744669_a_at) / Fold change /veh LINC00158 (11744669_a_at) / RFU DUSP10 (11751237_a_at) / Fold change /veh DUSP10 (11751237_a_at) / RFU ID3 (11757404_x_at) / Fold change /veh ID3 (11757404_x_at) / RFU PLEKHG5 (11737974_s_at) / Fold change /veh PLEKHG5 (11737974_s_at) / RFU LRRC4B (11730491_at) / Fold change /veh LRRC4B (11730491_at) / RFU GIMAP4 (11747438_a_at) / Fold change /veh GIMAP4 (11747438_a_at) / RFU KRT8 (11758183_x_at) / Fold change /veh KRT8 (11758183_x_at) / RFU CNN1 (11734310_a_at) / Fold change /veh CNN1 (11734310_a_at) / RFU VPS37D (11726825_at) / Fold change /veh VPS37D (11726825_at) / RFU C10orf10 (11716522_x_at) / Fold change /veh C10orf10 (11716522_x_at) / RFU KIR2DL2 /// KIR2DL4 /// KIR2DL5A /// KIR2DL5B /// KIR2DS1 /// KIR2DS2 /// KIR2DS3 /// KIR2DS4 /// KIR3DL3 /// KIR3DL3 /// KIR3DS1 (11738374_at) / Fold change /veh KIR2DL2 /// KIR2DL4 /// KIR2DL5A /// KIR2DL5B /// KIR2DS1 /// KIR2DS2 /// KIR2DS3 /// KIR2DS4 /// KIR3DL3 /// KIR3DL3 /// KIR3DS1 (11738374_at) / RFU C1QL1 (11718748_at) / Fold change /veh C1QL1 (11718748_at) / RFU TMPRSS4 (11747572_a_at) / Fold change /veh TMPRSS4 (11747572_a_at) / RFU HAMP (11756126_x_at) / Fold change /veh HAMP (11756126_x_at) / RFU RNFT2 (11725882_a_at) / Fold change /veh RNFT2 (11725882_a_at) / RFU NR4A2 (11747474_a_at) / Fold change /veh NR4A2 (11747474_a_at) / RFU ABCC12 (11746883_a_at) / Fold change /veh ABCC12 (11746883_a_at) / RFU TMEM136 (11760407_x_at) / Fold change /veh TMEM136 (11760407_x_at) / RFU CLDN22 /// WWC2 (11732394_at) / Fold change /veh CLDN22 /// WWC2 (11732394_at) / RFU HLA-DPB1 (11760878_x_at) / Fold change /veh HLA-DPB1 (11760878_x_at) / RFU SPINT1 (11716480_a_at) / Fold change /veh SPINT1 (11716480_a_at) / RFU GAP43 (11754022_s_at) / Fold change /veh GAP43 (11754022_s_at) / RFU A4GNT (11735810_at) / Fold change /veh A4GNT (11735810_at) / RFU PRB3 (11715151_x_at) / Fold change /veh PRB3 (11715151_x_at) / RFU TUBB4B (11761932_at) / Fold change /veh TUBB4B (11761932_at) / RFU CAPN14 (11732068_a_at) / Fold change /veh CAPN14 (11732068_a_at) / RFU TMCC2 (11721928_a_at) / Fold change /veh TMCC2 (11721928_a_at) / RFU IRGQ (11745062_a_at) / Fold change /veh IRGQ (11745062_a_at) / RFU FAM174B (11720279_a_at) / Fold change /veh FAM174B (11720279_a_at) / RFU TMPRSS4 (11748680_a_at) / Fold change /veh TMPRSS4 (11748680_a_at) / RFU FAM212B (11763350_a_at) / Fold change /veh FAM212B (11763350_a_at) / RFU PLEKHG5 (11743358_a_at) / Fold change /veh PLEKHG5 (11743358_a_at) / RFU ZSCAN30 (11745921_a_at) / Fold change /veh ZSCAN30 (11745921_a_at) / RFU CMKLR1 (11741424_a_at) / Fold change /veh CMKLR1 (11741424_a_at) / RFU LOC101060620 /// MAPK8IP1 (11723275_at) / Fold change /veh LOC101060620 /// MAPK8IP1 (11723275_at) / RFU SPTSSB (11747773_x_at) / Fold change /veh SPTSSB (11747773_x_at) / RFU PRSS12 (11739890_at) / Fold change /veh PRSS12 (11739890_at) / RFU BIN1 (11741810_x_at) / Fold change /veh BIN1 (11741810_x_at) / RFU WNT11 (11732464_a_at) / Fold change /veh WNT11 (11732464_a_at) / RFU C10orf10 (11716521_a_at) / Fold change /veh C10orf10 (11716521_a_at) / RFU C5orf56 (11738089_at) / Fold change /veh C5orf56 (11738089_at) / RFU CYB561 (11721691_x_at) / Fold change /veh CYB561 (11721691_x_at) / RFU ANKRD19P (11752326_a_at) / Fold change /veh ANKRD19P (11752326_a_at) / RFU OR2T12 /// OR2T33 /// OR2T8 (11738714_s_at) / Fold change /veh OR2T12 /// OR2T33 /// OR2T8 (11738714_s_at) / RFU VCAN (11748164_a_at) / Fold change /veh VCAN (11748164_a_at) / RFU JSRP1 (11732532_at) / Fold change /veh JSRP1 (11732532_at) / RFU KRTAP10-11 (11738290_x_at) / Fold change /veh KRTAP10-11 (11738290_x_at) / RFU MYO3A (11730013_a_at) / Fold change /veh MYO3A (11730013_a_at) / RFU EBF3 (11725865_a_at) / Fold change /veh EBF3 (11725865_a_at) / RFU CAMK2N1 (11719241_x_at) / Fold change /veh CAMK2N1 (11719241_x_at) / RFU C5orf56 (11738088_a_at) / Fold change /veh C5orf56 (11738088_a_at) / RFU OLFML3 (11715873_a_at) / Fold change /veh OLFML3 (11715873_a_at) / RFU LOC100653217 /// NTM (11731650_a_at) / Fold change /veh LOC100653217 /// NTM (11731650_a_at) / RFU MAPK11 (11762145_a_at) / Fold change /veh MAPK11 (11762145_a_at) / RFU FIZ1 (11724087_x_at) / Fold change /veh FIZ1 (11724087_x_at) / RFU OASL (11726364_x_at) / Fold change /veh OASL (11726364_x_at) / RFU SOX15 (11748057_x_at) / Fold change /veh SOX15 (11748057_x_at) / RFU CD79A (11719716_a_at) / Fold change /veh CD79A (11719716_a_at) / RFU HIST1H1D (11736915_at) / Fold change /veh HIST1H1D (11736915_at) / RFU CASKIN2 (11723855_a_at) / Fold change /veh CASKIN2 (11723855_a_at) / RFU LOC730098 (11760151_x_at) / Fold change /veh LOC730098 (11760151_x_at) / RFU OR4N2 (11742367_at) / Fold change /veh OR4N2 (11742367_at) / RFU PRRT2 (11749266_a_at) / Fold change /veh PRRT2 (11749266_a_at) / RFU SNX32 (11753110_a_at) / Fold change /veh SNX32 (11753110_a_at) / RFU CDHR5 (11726645_a_at) / Fold change /veh CDHR5 (11726645_a_at) / RFU RCAN1 (11760418_a_at) / Fold change /veh RCAN1 (11760418_a_at) / RFU FAM167A (11723789_a_at) / Fold change /veh FAM167A (11723789_a_at) / RFU FAM26E (11764081_at) / Fold change /veh FAM26E (11764081_at) / RFU ISYNA1 (11749810_s_at) / Fold change /veh ISYNA1 (11749810_s_at) / RFU ACY1 (11761880_at) / Fold change /veh ACY1 (11761880_at) / RFU 11764098_at / Fold change /veh 11764098_at / RFU SAMD14 (11745864_x_at) / Fold change /veh SAMD14 (11745864_x_at) / RFU NPB (11741838_a_at) / Fold change /veh NPB (11741838_a_at) / RFU TMPRSS6 (11731388_a_at) / Fold change /veh TMPRSS6 (11731388_a_at) / RFU KRTAP10-2 (11738614_at) / Fold change /veh KRTAP10-2 (11738614_at) / RFU ARHGAP8 /// PRR5-ARHGAP8 (11727945_x_at) / Fold change /veh ARHGAP8 /// PRR5-ARHGAP8 (11727945_x_at) / RFU KRTAP5-7 /// NADSYN1 (11734609_at) / Fold change /veh KRTAP5-7 /// NADSYN1 (11734609_at) / RFU RASL12 (11751679_a_at) / Fold change /veh RASL12 (11751679_a_at) / RFU CDKN2B (11736163_a_at) / Fold change /veh CDKN2B (11736163_a_at) / RFU PRF1 (11729649_at) / Fold change /veh PRF1 (11729649_at) / RFU, ZNF638 /// ZNF638-IT1 / Fold change vs veh, ZNF638 /// ZNF638-IT1 / RFU, PANK3 / Fold change vs veh, PANK3 / RFU, SH3YL1 / Fold change vs veh, SH3YL1 / RFU, ZEB2 / Fold change vs veh, ZEB2 / RFU, NRIP1 / Fold change vs veh, NRIP1 / RFU, PTTG1IP / Fold change vs veh, PTTG1IP / RFU, CAPN2 / Fold change vs veh, CAPN2 / RFU, MED14 / Fold change vs veh, MED14 / RFU, SNORA58 / Fold change vs veh, SNORA58 / RFU, C1orf63 / Fold change vs veh, C1orf63 / RFU, LRRFIP1 / Fold change vs veh, LRRFIP1 / RFU, NDUFAF7 / Fold change vs veh, NDUFAF7 / RFU, SLC12A2 / Fold change vs veh, SLC12A2 / RFU, IBTK / Fold change vs veh, IBTK / RFU, ESF1 / Fold change vs veh, ESF1 / Fold change vs veh, TMEM50B / RFU, TAOK1 / Fold change vs veh, TAOK1 / RFU, ACBD3 / Fold change vs veh, ACBD3 / RFU, TMA16 / Fold change vs veh, TMA16 / RFU, RWDD3 / Fold change vs veh, RWDD3 / RFU, BCAT1 / Fold change vs veh, BCAT1 / RFU, EDEM3 / Fold change vs veh, EDEM3 / RFU, TMEM33 / Fold change vs veh, TMEM33 / RFU, WDR75 / Fold change vs veh, WDR75 / RFU, AHCTF1 / Fold change vs veh, AHCTF1 / RFU, TFRC / Fold change vs veh, TFRC / RFU, ZDHHC17 / Fold change vs veh, ZDHHC17 / RFU, NOM1 / Fold change vs veh, NOM1 / RFU, ARL8B / Fold change vs veh, ARL8B / RFU, ZBTB11 / Fold change vs veh, ZBTB11 / RFU, TAMM41 / Fold change vs veh, TAMM41 / RFU, KIAA1704 /// LOC100996395 / Fold change vs veh, KIAA1704 /// LOC100996395 / RFU, ING1 / Fold change vs veh, ING1 / RFU, TRMT61B / Fold change vs veh, TRMT61B / RFU, FUBP3 / Fold change vs veh, FUBP3 / RFU, TP53 / Fold change vs veh, TP53 / RFU, TNKS2 / Fold change vs veh, TNKS2 / RFU, ZFP14 / Fold change vs veh, ZFP14 / RFU, ACTR2 / Fold change vs veh, ACTR2 / RFU, PPP3R1 / Fold change vs veh, PPP3R1 / RFU, PIK3R1 / Fold change vs veh, PIK3R1 / RFU, HNRNPA1 / Fold change vs veh, HNRNPA1 / RFU, RNF170 / Fold change vs veh, RNF170 / RFU, ZNF28 / Fold change vs veh, ZNF28 / RFU, RNGTT / Fold change vs veh, RNGTT / RFU, OGT / Fold change vs veh, OGT / RFU, BRD1 / Fold change vs veh, BRD1 / RFU, MARS / Fold change vs veh, MARS / RFU, ZNF655 / Fold change vs veh, ZNF655 / RFU, FAHD1 / Fold change vs veh, FAHD1 / RFU, BDP1 / Fold change vs veh, BDP1 / RFU, LRRCC1 / Fold change vs veh, LRRCC1 / RFU, ARID1A / Fold change vs veh, ARID1A / RFU, ZNF146 / Fold change vs veh, ZNF146 / RFU, ZNF330 / Fold change vs veh, ZNF330 / RFU, GPN3 / Fold change vs veh, GPN3 / RFU, C9orf123 / Fold change vs veh, C9orf123 / RFU, N4BP2L2 / Fold change vs veh, N4BP2L2 / RFU, ARFIP1 / Fold change vs veh, ARFIP1 / RFU, FAM179B / Fold change vs veh, FAM179B / RFU, BCL10 / Fold change vs veh, BCL10 / RFU, UHRF1BP1L / Fold change vs veh, UHRF1BP1L / RFU, BET1 / Fold change vs veh, BET1 / RFU, CNOT2 / Fold change vs veh, CNOT2 / RFU, ZNF268 / Fold change vs veh, ZNF268 / Fold change vs veh, ZNF507 / RFU, DGCR2 / Fold change vs veh, DGCR2 / RFU, WDSUB1 / Fold change vs veh, WDSUB1 / Fold change vs veh, HSP90B1 /// MIR3652 / RFU, ADSS / Fold change vs veh, ADSS / RFU, GK / Fold change vs veh, GK / RFU, ZNF148 / Fold change vs veh, ZNF148 / RFU, TAF9 / Fold change vs veh, TAF9 / RFU, SLC1A5 / Fold change vs veh, SLC1A5 / RFU, SLMO2 / Fold change vs veh, SLMO2 / RFU, ABCC4 / Fold change vs veh, ABCC4 / RFU, LOC101060439 /// RAP1B / Fold change vs veh, LOC101060439 /// RAP1B / RFU, RFX7 / Fold change vs veh, RFX7 / RFU, GTPBP10 / Fold change vs veh, GTPBP10 / RFU, CNEP1R1 / Fold change vs veh, CNEP1R1 / RFU, BIVM-ERCC5 /// ERCC5 / Fold change vs veh, BIVM-ERCC5 /// ERCC5 / RFU, ILF3 / Fold change vs veh, ILF3 / RFU 11762660_at / Fold change /veh 11762660_at / RFU VCAN (11757783_s_at) / Fold change /veh VCAN (11757783_s_at) / RFU DDX43 (11728927_at) / Fold change /veh DDX43 (11728927_at) / RFU KRT8 (11758188_x_at) / Fold change /veh KRT8 (11758188_x_at) / RFU NKD1 (11759106_at) / Fold change /veh NKD1 (11759106_at) / RFU SRD5A1 (11742802_a_at) / Fold change /veh SRD5A1 (11742802_a_at) / RFU TPSAB1 /// TPSB2 (11721975_s_at) / Fold change /veh TPSAB1 /// TPSB2 (11721975_s_at) / RFU GSTM3 (11746129_a_at) / Fold change /veh GSTM3 (11746129_a_at) / RFU IL23R (11737362_x_at) / Fold change /veh IL23R (11737362_x_at) / RFU TMEM51 (11727254_a_at) / Fold change /veh TMEM51 (11727254_a_at) / RFU PIWIL2 (11732686_x_at) / Fold change /veh PIWIL2 (11732686_x_at) / RFU ORM1 (11744905_x_at) / Fold change /veh ORM1 (11744905_x_at) / RFU CCDC152 (11743942_at) / Fold change /veh CCDC152 (11743942_at) / RFU ECM1 (11717891_a_at) / Fold change /veh ECM1 (11717891_a_at) / RFU IL23R (11748794_a_at) / Fold change /veh IL23R (11748794_a_at) / RFU TNFAIP8L3 (11732012_x_at) / Fold change /veh TNFAIP8L3 (11732012_x_at) / RFU MBOAT4 (11741988_at) / Fold change /veh MBOAT4 (11741988_at) / RFU 11764193_at / Fold change /veh 11764193_at / RFU TMEM53 (11763286_at) / Fold change /veh TMEM53 (11763286_at) / RFU MAGEB2 (11727129_at) / Fold change /veh MAGEB2 (11727129_at) / RFU TMEM200A (11744735_a_at) / Fold change /veh TMEM200A (11744735_a_at) / RFU CCDC152 (11751479_a_at) / Fold change /veh CCDC152 (11751479_a_at) / RFU FAM211A (11726209_a_at) / Fold change /veh FAM211A (11726209_a_at) / RFU RGS16 (11746705_a_at) / Fold change /veh RGS16 (11746705_a_at) / RFU VCAN (11755009_s_at) / Fold change /veh VCAN (11755009_s_at) / RFU RHOB (11743442_s_at) / Fold change /veh RHOB (11743442_s_at) / RFU RGS16 (11720943_a_at) / Fold change /veh RGS16 (11720943_a_at) / RFU RGS16 (11720944_at) / Fold change /veh RGS16 (11720944_at) / RFU, VPS4B / Fold change vs veh, VPS4B / RFU, CREB1 / Fold change vs veh, CREB1 / RFU, DNAJC13 / Fold change vs veh, DNAJC13 / RFU, GNAQ / Fold change vs veh, GNAQ / RFU, CDK5R1 / Fold change vs veh, CDK5R1 / RFU, ZRANB3 / Fold change vs veh, ZRANB3 / RFU, CUL4A / Fold change vs veh, CUL4A / RFU, CCNY / Fold change vs veh, CCNY / RFU, UFL1 / Fold change vs veh, UFL1 / RFU, COG3 / Fold change vs veh, COG3 / RFU, DIAPH2 / Fold change vs veh, DIAPH2 / RFU, SKA2 / Fold change vs veh, SKA2 / RFU, AFF3 / Fold change vs veh, AFF3 / RFU, LMF1 / Fold change vs veh, LMF1 / RFU, IPO11 / Fold change vs veh, IPO11 / RFU, DFFB / Fold change vs veh, DFFB / RFU, FOXP1 / Fold change vs veh, FOXP1 / RFU, CARD8 / Fold change vs veh, CARD8 / RFU, STRN3 / Fold change vs veh, STRN3 / RFU, ADK / Fold change vs veh, ADK / RFU, RASSF2 / Fold change vs veh, RASSF2 / RFU, WIPF1 / Fold change vs veh, WIPF1 / RFU, LARP1B / Fold change vs veh, LARP1B / RFU, RASA1 / Fold change vs veh, RASA1 / RFU, RB1 / Fold change vs veh, RB1 / RFU, PPFIA1 / Fold change vs veh, PPFIA1 / RFU, MAT2A / Fold change vs veh, MAT2A / RFU, CCT5 / Fold change vs veh, CCT5 / RFU, WDR92 / Fold change vs veh, WDR92 / RFU, CUX1 / Fold change vs veh, CUX1 / RFU, TTC7A / Fold change vs veh, TTC7A / RFU, TMEM135 / Fold change vs veh, TMEM135 / RFU, DEPTOR / Fold change vs veh, DEPTOR / RFU, CPM / Fold change vs veh, CPM / RFU, DNAJB6 / Fold change vs veh, DNAJB6 / RFU, CACNA2D3 / Fold change vs veh, CACNA2D3 / RFU, DTX4 / Fold change vs veh, DTX4 / RFU, TFCP2 / Fold change vs veh, TFCP2 / RFU, GMCL1 /// GMCL1P1 / Fold change vs veh, GMCL1 /// GMCL1P1 / RFU, AEBP2 / Fold change vs veh, AEBP2 / RFU, SNHG1 /// SNORD22 /// SNORD25 /// SNORD26 /// SNORD27 /// SNORD28 /// SNORD29 /// SNORD31 / Fold change vs veh, SNHG1 /// SNORD22 /// SNORD25 /// SNORD26 /// SNORD27 /// SNORD28 /// SNORD29 /// SNORD31 / Fold change (Aza/veh), C12orf56 (ProbeSet 11735607_a_at) / Fold change (ACY-1035/veh), C12orf56 (ProbeSet 11735607_a_at) / Fold change (Aza/veh), FGFR1OP (ProbeSet 11751329_s_at) / Fold change (ACY-1035/veh), FGFR1OP (ProbeSet 11751329_s_at) / Fold change (Aza/veh), VPS36 (ProbeSet 11739960_a_at) / Fold change (ACY-1035/veh), VPS36 (ProbeSet 11739960_a_at) / RFU SYPL1 (11715823_x_at) / Fold change /veh SYPL1 (11715823_x_at) / RFU IGFBP7 (11715501_s_at) / Fold change /veh IGFBP7 (11715501_s_at) / RFU REEP3 (11722064_at) / Fold change /veh REEP3 (11722064_at) / RFU IGLL1 (11728026_x_at) / Fold change /veh IGLL1 (11728026_x_at): dose or concentration left out as unconfirmed
Conditions: ProbeSet 11758440_s_at; LIST B

## Nc1ccc(-c2cccs2)cc1NC(=O)c1ccc2c(c1)cc(C1CC1)n2CCN1CCOCC1 [ACY-1035]
  RFU, RFX7: 47.76 RFU
